Reference: the NIST ThermoML archive (doi:10.1021/je030132i)

Experiment: xn = mol fraction of the nth substance listed
Settings: 101.3 kPa, Liquid; for viscosity: Capillary tube (Ostwald / Ubbelohde) method; for mass density: Vibrating tube method

CC(O)CNCC(C)O (configuration not stated) [N-(2-hydroxypropyl)-2-hydroxy-1-propanamine] + O
Settings | mass density [kg/m3] | viscosity [mPa·s]
298.15 K, x1 = 0.02 | 1005.22 | 1.645
298.15 K, x1 = 0.0498 | 1015.93 | 3.723
298.15 K, x1 = 0.0701 | 1021.72 | 6.06
298.15 K, x1 = 0.1001 | 1027.13 | 11.55
298.15 K, x1 = 0.1999 | 1030.9 | 55.69
298.15 K, x1 = 0.3006 | 1027.13 | 166.1
298.15 K, x1 = 0.3963 | 1022.42 | 338.7
298.15 K, x1 = 0.5012 | 1017.79 | 613
298.15 K, x1 = 0.5957 | 1014.09 | 861
298.15 K, x1 = 0.7034 | 1010.66 | 1142
298.15 K, x1 = 0.8029 | 1008.07 | 1326
298.15 K, x1 = 0.9016 | 1006.28 | 1478
313.15 K, x1 = 0.02 | 999.64 | 1.112
313.15 K, x1 = 0.0498 | 1008.66 | 2.218
313.15 K, x1 = 0.0701 | 1013.2 | 3.335
313.15 K, x1 = 0.1001 | 1017.4 | 5.56
313.15 K, x1 = 0.1999 | 1019.77 | 20.63
313.15 K, x1 = 0.3006 | 1016.15 | 46.9
313.15 K, x1 = 0.3963 | 1011.45 | 87.7
313.15 K, x1 = 0.5012 | 1006.84 | 139.1
313.15 K, x1 = 0.5957 | 1003.2 | 184.6
313.15 K, x1 = 0.7034 | 999.62 | 229.9
313.15 K, x1 = 0.8029 | 997.1 | 264.6
313.15 K, x1 = 0.9016 | 995.03 | 290.7
318.65 K, x1 = 0.02 | 997.52 | 0.992
318.65 K, x1 = 0.0498 | 1006.43 | 1.914
318.65 K, x1 = 0.0701 | 1010.34 | 2.776
318.65 K, x1 = 0.1001 | 1014 | 4.6
318.65 K, x1 = 0.1999 | 1015.54 | 15.21
318.65 K, x1 = 0.3006 | 1011.9 | 32.42
318.65 K, x1 = 0.3963 | 1007.24 | 58.7
318.65 K, x1 = 0.5012 | 1002.82 | 88.1
318.65 K, x1 = 0.5957 | 999.15 | 114.5
318.65 K, x1 = 0.7034 | 995.55 | 140
318.65 K, x1 = 0.8029 | 993.04 | 159.5
318.65 K, x1 = 0.9016 | 990.99 | 174.2
318.65 K, x1 = 1 | 988.22 | 186.6
323.15 K, x1 = 0.02 | 995.02 | 0.907
323.15 K, x1 = 0.0498 | 1003.09 | 1.684
323.15 K, x1 = 0.0701 | 1006.95 | 2.408
323.15 K, x1 = 0.1001 | 1010.46 | 3.78
323.15 K, x1 = 0.1999 | 1012.04 | 12.06
323.15 K, x1 = 0.3006 | 1008.24 | 24.56
323.15 K, x1 = 0.3963 | 1003.75 | 42.8
323.15 K, x1 = 0.5012 | 999.39 | 63.37
323.15 K, x1 = 0.5957 | 995.71 | 79.93
323.15 K, x1 = 0.7034 | 992.23 | 96.22
323.15 K, x1 = 0.8029 | 989.58 | 108.7
323.15 K, x1 = 0.9016 | 987.51 | 118
323.15 K, x1 = 1 | 984.9 | 125.7
333.15 K, x1 = 0.02 | 989.76 | 0.733
333.15 K, x1 = 0.0498 | 996.93 | 1.355
333.15 K, x1 = 0.0701 | 1000.34 | 1.816
333.15 K, x1 = 0.1001 | 1003.16 | 2.719
333.15 K, x1 = 0.1999 | 1004.03 | 7.5
333.15 K, x1 = 0.3006 | 1000.17 | 14.15
333.15 K, x1 = 0.3963 | 995.77 | 22.89
333.15 K, x1 = 0.5012 | 991.52 | 32.12
333.15 K, x1 = 0.5957 | 987.88 | 39.31
333.15 K, x1 = 0.7034 | 984.45 | 46.32
333.15 K, x1 = 0.8029 | 981.79 | 51.38
333.15 K, x1 = 0.9016 | 979.72 | 55.03
333.15 K, x1 = 1 | 977.3 | 57.99
343.15 K, x1 = 0.02 | 983.93 | 0.621
343.15 K, x1 = 0.0498 | 990.37 | 1.061
343.15 K, x1 = 0.0701 | 993.22 | 1.412
343.15 K, x1 = 0.1001 | 995.55 | 2.042
343.15 K, x1 = 0.1999 | 995.78 | 5.05
343.15 K, x1 = 0.3006 | 991.86 | 8.7
343.15 K, x1 = 0.3963 | 987.44 | 13.34
343.15 K, x1 = 0.5012 | 983.33 | 17.88
343.15 K, x1 = 0.5957 | 979.75 | 21.19
343.15 K, x1 = 0.7034 | 976.35 | 24.42
343.15 K, x1 = 0.8029 | 973.95 | 26.64
343.15 K, x1 = 0.9016 | 971.72 | 28.29
343.15 K, x1 = 1 | 969.58 | 29.55
